Test results from patent publication US8399495B2, “Talarazole metabolites” (Stiefel Laboratories, Inc., priority 2006, dated 2013).

How the values were obtained:
[1] = Metabolite radioprofiling of plasma, urine, feces and semen, human; settings: in vivo
Protocol: (§1) Male and female CD-1 mice (19-29 g, n=3/sex/timepoint for blood sampling, n=3/sex for mass balance), Sprague Dawley rats (0.205-0.237 kg, n=3/sex/timepoint for blood sampling, n=3/sex for mass balance) and beagle dogs (7-12 kg, n=3) were given a single oral dose of ^14C-labeled talarozole in 20% hydroxyl propyl B-cyclodextrin at 5 mg/kg. Healthy human male volunteers (76.6-107.9 kg, n=5) were dosed with a single oral dose of 4 mg ^14C-labeled rambazole in ethanol. Blood samples were collected at selected timepoints after dosing and plasma was prepared. Urine and feces were collected for 2, 7 and 8 days. For the human study, up to 288 hours post-dose and semen samples were obtained 2 and 4 hours post-dose. Radioactivity in various matrices were measured by liquid scintillation counting (LSC). Select plasma, urine and fecal samples were subjected to metabolite radioprofiling and characterization, and in the human study, semen samples. Metabolite radioprofiling was accomplished using HPLC with fraction collection followed by solid scintillation counting (Packard TopCount—see representative HPLC run data below). Radioactivity peaks were integrated and the percent distribution of individual metabolites in each sample was determined. Metabolite characterization and identification were accomplished by LC/MS (Finnigan MAT LCQ in positive or negative ESI mode) in conjunction with an appropriate radioactive monitor (RAM). For all species, plasma, urine and fecal samples were pooled across animals and analyzed. Plasma was analyzed at several time-points out to 24 hours. Urine was analyzed over one time-interval (0-24 hours for mouse, 0-48 hours for rat, 0-72 hours for dog, and for in the human study, 0-12, 12-24, 24-48, 0-48 hours. Feces was analyzed over 2-3 time intervals (0-24 and 24-48 hours for mouse and rat; 0-24, 24-48, and 48-72 hours for male dogs; and 24-48, 48-72, and 72-96 hours for female dogs). In the human study, feces were analyzed for 0-48, 48-96, 96-144, 144-192, 192-288, 0-144, 144-288 and 0-288 hours. PK parameters for ^14C-labeled talarozole radioactivity was determined from the mean (mouse and rat) or individual (dog and human) plasma concentration versus time data. PK parameter values were determined by non-compartmental methods using WinNonlin™. • HPLC data for separations described in Example 1: • LC system: Waters 2695 Separations Module • Analytic column: C18 column, 4.6×150 mm, 3 μm • Flow rate: 1.0 mL/min • Mobile phase A: 2% HCOOH in H2O (pH 3.2) • Mobile phase B: CH3CN • Gradient: […]

[2] = test system: vaginal keratinization induced by estrogenic treatment; experiment: Inhibition of vaginal keratinization induced by estrogenic treatment in ovariectomized rats; assay type: in vivo, rat; settings: ovariectomized rats with estrogenic treatment; M4 oral during 3 days
Text: Effects on Epithelial Differentiation in Rat Vagina: Inhibition of Vaginal Keratinization Induced by Estrogenic Treatment in Ovariectomized Rats by Oral Administration of Talarozole Metabolite M4
This animal model is based on the observation that retinoic acid (RA) suppresses the keratinization process in the stratified squamous epithelium of the vagina induced by estrogenic treatment in ovariectomized rats (Sietsema & DeLuca, 1982; Geiger & Weiser, 1989).

[3] = Excretion of radioactivity (mass balance), dog; assay type: in vivo; settings: 0-192 h, oral 5 mg/kg; for % in Urine (percent of dose recovered, total radioactivity) / % in Feces (percent of dose recovered, total radioactivity): 5 mg/kg
Text: Mouse, rat, dog and human were the species used for the safety evaluations of talarozole. More specifically, the disposition of ^14C-labeled talarozole was examined in mice, rats, dogs and humans after oral administration to provide information regarding the absorption, metabolism and excretion of talarozole.
as §1

[4] = female, listed as 14C-Talarozole
[5] = female, listed as 14C-labeled talarozole

Plasma 0-24 h AUC of the radioactive component ([1]; human, po, 0.067 mg/kg): 12.74 ng·h/g
Semen (radioactive component in semen samples) [1]: minor radioactive components
Urine % Dose as the component [1]: not found
Plasma 0-24 h AUC, total radioactivity ([1]; male, human, 0.067 mg/kg): 211.3 ng·h/g
Plasma 0-24 h AUC (% Sample), % of total plasma radioactivity ([1]; male, human, po, 0.067 mg/kg): 6.03%
% in Urine (percent of dose recovered, total radioactivity) ([3]; listed as 14C-Talarozole): 4.13 M %
% in Urine (percent of dose recovered, total radioactivity) ([3]; listed as 14C-labeled talarozole): 4.1%
% in Cage Rinse (percent of dose recovered) ([3]; female): 0.5%
Total % Recovered ([3]; female): 92.4%
% in Feces (percent of dose recovered, total radioactivity) [3, 4]: 89.00 F %
% in Urine (percent of dose recovered, total radioactivity) [3, 4]: 2.89 F %
% in Feces (percent of dose recovered, total radioactivity) [3, 5]: 89.0%
% in Urine (percent of dose recovered, total radioactivity) [3, 5]: 2.9%
% in Cage Rinse (percent of dose recovered) ([3]; male): 0.8%
Total % Recovered ([3]; male): 93.6%
% in Feces (percent of dose recovered, total radioactivity) ([3]; male, listed as 14C-Talarozole): 88.66 M %
% in Feces (percent of dose recovered, total radioactivity) ([3]; male, listed as 14C-labeled talarozole): 88.7%
SMILES: CCC(CC)[C@H](c1ccc(Nc2nc3ccccc3s2)cc1)n1cncn1 [Talarozole, (R)—N-[4-[2-ethyl-1-(1H-1,2,4-triazole-1-yl)butyl]phenyl]-2-benzothiazolamine]
ED50-value for complete suppression (keratinization score=0) [2]: 1.0 mg/kg/day
